Reference: PubChem BioAssay AID1259408 (Genetic Toxicology Data Bank (GENE-TOX), 2018)
Activity calls are given as the source filed them. How the calls were made is not given here.

Test system: GENE-TOX genotoxicity assays, various organisms and cells
Assay: GENE-TOX mutagenicity studies
Settings: for call: Assay Type: In vivo carcinogenicity studies
[1] = Species/Cell Type: Allium cepa, Assay Type: Chromosome aberrations, Assay Code: ALC+D, Dose Response: With dose response, Evaluation Type: Evaluation A (Pre-1980)
[2] = Species/Cell Type: Nonhuman, Assay Code: CCG+, Evaluation Type: Evaluation A (Pre-1980)
[3] = Species/Cell Type: Nonhuman, Assay Type: Sister-chromatid exchange (SCE) in vitro, Assay Code: SC2+D, Dose Response: With dose response, Evaluation Type: Evaluation A (Pre-1980)
[4] = Species/Cell Type: Salmonella typhimurium (one or more of the five standard strains: TA98, TA100, TA1535, TA1537, and TA1538), Assay Type: Histidine reverse gene mutation, Ames assay, Assay Code: SAL+, Evaluation Type: Evaluation A (Pre-1980)
[5] = Species/Cell Type: Drosophila melanogaster, Assay Type: Sex-linked recessive lethal gene mutation, Assay Code: SRLT, Evaluation Type: Evaluation A (Pre-1980)
[6] = Species/Cell Type: Escherichia coli polA (W3119 vs P3478), Assay Type: Rec-assay, DNA effects (bacterial DNA repair), Assay Code: RE1T, Evaluation Type: Evaluation A (Pre-1980)
[7] = Species/Cell Type: Salmonella typhimurium (one or more of the five standard strains: TA98, TA100, TA1535, TA1537, and TA1538), Assay Type: Histidine reverse gene mutation, Ames assay, Assay Code: SAL+*, Activation: With metabolic activation, Evaluation Type: Evaluation A (Pre-1980)
[8] = Species/Cell Type: Mammalian polychromatic erythrocytes, Assay Type: Micronucleus test, chromosome aberrations, Assay Code: MNTT, Evaluation Type: Evaluation A (Pre-1980)
[9] = Species/Cell Type: Salmonella typhimurium (one or more of the five standard strains: TA98, TA100, TA1535, TA1537, and TA1538), Assay Type: Histidine reverse gene mutation, Ames assay, Assay Code: SALT, Evaluation Type: Evaluation A (Pre-1980)

With `CC(=O)[O-].CC(=O)[O-].O.O.O.[Pb+2]` the mutagenic call [1] was “active; positive” and the mutagenic call (Species/Cell Type: Nonhuman, Assay Type: Sister-chromatid exchange (SCE) in vitro, Assay Code: SC2T, Evaluation Type: Evaluation B (Post-1980)) was “no conclusion”.

With `COc1cccc2c1C(=O)c1c(O)c3c(c(O)c1C2=O)C[C@@](O)(C(=O)CO)C[C@@H]3O[C@H]1C[C@H](N)[C@H](O)[C@H](C)O1` the mutagenic call (Species/Cell Type: Chinese hamster lung (V79) cells, Assay Type: Forward gene mutation at the HPRT or ouabain locus, Assay Code: V79+, Evaluation Type: Evaluation A (Pre-1980)) was “active; positive”, the mutagenic call (Species/Cell Type: Chinese hamster ovary (CHO) cells, Assay Type: Forward gene mutation at the HPRT locus, Assay Code: CHO+, Evaluation Type: Evaluation B (Post-1980)) was “active; positive” and the mutagenic call (Species/Cell Type: Fischer rat embryo (RLV/1706) cells, Assay Type: Cell transformation, viral enhanced, Assay Code: CTR+, Evaluation Type: Evaluation A (Pre-1980)) was “active; positive”. For the same compound, the mutagenic call (Species/Cell Type: Human lymphocytes or leukocytes, Assay Type: Chromosome aberrations in vitro, Assay Code: CY7+, Evaluation Type: Evaluation A (Pre-1980)) was “active; positive”, the mutagenic call (Species/Cell Type: Human lymphocytes, Assay Type: Sister-chromatid exchange (SCE) in vitro, Assay Code: SCL+D, Dose Response: With dose response, Evaluation Type: Evaluation B (Post-1980)) was “active; positive” and the mutagenic call (Species/Cell Type: Human lymphocytes, Assay Type: Sister-chromatid exchange (SCE) in vivo, Assay Code: SCY+D, Dose Response: With dose response, Evaluation Type: Evaluation A (Pre-1980)) was “active; positive”. For the same compound, the mutagenic call (Species/Cell Type: Human, Assay Type: Sister-chromatid exchange (SCE) in vitro, Assay Code: SC1+D, Dose Response: With dose response, Evaluation Type: Evaluation A (Pre-1980)) was “active; positive”, the mutagenic call (Species/Cell Type: Human, Sex: Male, Assay Type: Sperm morphology, Assay Code: SPH+, Evaluation Type: Evaluation A (Pre-1980)) was “active; positive” and the mutagenic call (Species/Cell Type: Mammalian polychromatic erythrocytes, Assay Type: Micronucleus test, chromosome aberrations, Assay Code: MNT+, Evaluation Type: Evaluation A (Pre-1980)) was “active; positive”. For the same compound, the mutagenic call (Species/Cell Type: Mouse, Sex: Male, Assay Type: Sperm morphology, Assay Code: SPI+, Evaluation Type: Evaluation A (Pre-1980)) was “active; positive”, the call [2] was “active; positive” and the mutagenic call [3] was “active; positive”. For the same compound, the mutagenic call (Species/Cell Type: Nonhuman, Assay Type: Sister-chromatid exchange (SCE) in vivo, Assay Code: SC3+D, Dose Response: With dose response, Evaluation Type: Evaluation A (Pre-1980)) was “active; positive” and the mutagenic call [4] was “active; positive”.

With `CC(=O)Nc1ccc(N=Nc2cc(C)ccc2O)cc1` the call [2] was “active; positive”.

With `CN(C)CCCN1c2ccccc2Sc2ccccc21` the mutagenic call [3] was “active; positive”.

In the case of `Cc1cc2nc3ccc(N(C)C)cc3nc2cc1N`, the mutagenic call [5] is reported as “no conclusion”, the mutagenic call [6] is reported as “no conclusion” and the mutagenic call (Species/Cell Type: Neurospora crassa, Assay Type: Aneuploidy, chromosome aberrations, Assay Code: NEN-, Evaluation Type: Evaluation A (Pre-1980)) is reported as “inactive; negative”. For the same compound, the mutagenic call [7] was “active; positive”.

With `O=S(O)(O)=S` the mutagenic call (Species/Cell Type: Allium cepa, Assay Type: Chromosome aberrations, Assay Code: ALC-, Evaluation Type: Evaluation A (Pre-1980)) was “inactive; negative”.

For `CN(C)c1ccccc1N=Nc1ccccc1`, the mutagenic call (Species/Cell Type: Salmonella typhimurium, Assay Type: Forward and reverse gene mutation, host-mediated assay, Assay Code: HMA+, Evaluation Type: Evaluation A (Pre-1980)) was “active; positive”.

For `O=c1nc(NO)ccn1[C@@H]1O[C@H](CO)[C@@H](O)[C@H]1O`, the mutagenic call (Species/Cell Type: Escherichia coli WP2, Assay Type: Tryptophan reverse gene mutation, Assay Code: WP2+D, Dose Response: With dose response, Evaluation Type: Evaluation A (Pre-1980)) was “active; positive” and the mutagenic call (Species/Cell Type: Escherichia coli WP2 UVRA, Assay Type: Tryptophan reverse gene mutation, Assay Code: WPU+D, Dose Response: With dose response, Evaluation Type: Evaluation A (Pre-1980)) was “active; positive”.

`C1CCNC1` was tested, and the mutagenic call (Species/Cell Type: Salmonella typhimurium, Assay Type: Forward and reverse gene mutation, host-mediated assay, Assay Code: HMA-, Evaluation Type: Evaluation A (Pre-1980)) was “inactive; negative”.

With `CCC(=O)C(CC(C)N(C)C)(c1ccccc1)c1ccccc1` (stereo not given) the mutagenic call (Species/Cell Type: Drosophila melanogaster, Assay Type: Sex-linked recessive lethal gene mutation, Assay Code: SRL-, Evaluation Type: Evaluation A (Pre-1980)) was “inactive; negative”, the mutagenic call (Species/Cell Type: Drosophila melanogaster, Sex: Male, Assay Type: Heritable translocation test, chromosome aberrations, Assay Code: DHT-, Evaluation Type: Evaluation A (Pre-1980)) was “inactive; negative” and the mutagenic call (Species/Cell Type: Human, Sex: Male, Assay Type: Sperm morphology, Assay Code: SPHT, Evaluation Type: Evaluation A (Pre-1980)) was “no conclusion”.

`C[C@@H]1C[C@@H]2OC(=O)[C@]3(C)[C@H]2[C@@H](OC3(C)O)[C@]2(C)C(=O)C=C[C@@H]12` (stereo not given in full) was tested, and the mutagenic call (Species/Cell Type: Salmonella typhimurium (one or more of the five standard strains: TA98, TA100, TA1535, TA1537, and TA1538), Assay Type: Histidine reverse gene mutation, Ames assay, Assay Code: SAL-, Evaluation Type: Evaluation A (Pre-1980)) was “inactive; negative”.

`CNC(=O)C[C@@H](N)C(=O)N[C@@H](C(=O)N[C@@H]1C(=O)N2[C@@H]1SC(C)(C)[C@@H]2C(=O)O)c1ccc(O)cc1` was tested, and the mutagenic call (Species/Cell Type: Mammalian polychromatic erythrocytes, Assay Type: Micronucleus test, chromosome aberrations, Assay Code: MNTT, Evaluation Type: Evaluation B (Post-1980)) was “no conclusion”.

`Nc1ncnc2nc[nH]c12` was tested, and the mutagenic call [1] was “active; positive” and the mutagenic call [5] was “no conclusion”.

For `COCC(C)OS(C)(=O)=O` (stereo not given), the mutagenic call (Species/Cell Type: Hordeum vulgare (barley), Assay Type: Chromosome aberrations, Assay Code: HOC+D, Dose Response: With dose response, Evaluation Type: Evaluation A (Pre-1980)) was “active; positive”.

`CCCCCCCCCCCCN(C)N=O` was tested, and the mutagenic call [7] was “active; positive”.

`CSc1nnc(C(C)(C)C)c(=O)n1N` was tested, and the mutagenic call (Species/Cell Type: Saccharomyces cerevisiae, Assay Type: Mitotic recombination or gene conversion, Assay Code: YEC-, Evaluation Type: Evaluation A (Pre-1980)) was “inactive; negative”.

`CC(C)(C#N)Nc1nc(Cl)nc(NC2CC2)n1` was tested, and the mutagenic call (Species/Cell Type: Zea mays (corn), Assay Type: Gene mutation, Assay Code: ZEM-, Evaluation Type: Evaluation A (Pre-1980)) was “inactive; negative”.

`Cn1c([N+](=O)[O-])cnc1COC(N)=O` was tested, and the mutagenic call [8] was “no conclusion”, the mutagenic call (Species/Cell Type: Rodents, Sex: Male, Assay Type: Dominant lethal test, Assay Code: DLT-, Evaluation Type: Evaluation A (Pre-1980)) was “inactive; negative” and the mutagenic call [4] was “active; positive”.

In the case of `COc1cc2c3cc1Oc1cc(ccc1O)C[C@@H]1c4c(cc(OC)c(O)c4Oc4ccc(cc4)C[C@@H]3N(C)CC2)CC[N+]1(C)C`, the mutagenic call [6] is reported as “no conclusion” and the mutagenic call [9] is reported as “no conclusion”.

`Nc1ccc2c(ccc3ccccc32)n1` was tested, and the mutagenic call [7] was “active; positive”.

For `CN1C(=O)CN=C(c2ccccc2)c2cc(Cl)ccc21`, the mutagenic call (Species/Cell Type: Human lymphocytes, Assay Type: Sister-chromatid exchange (SCE) in vivo, Assay Code: SCY+, Evaluation Type: Evaluation B (Post-1980)) was “active; positive”, the mutagenic call (Species/Cell Type: Human, Assay Type: Sister-chromatid exchange (SCE) in vitro, Assay Code: SC1T, Evaluation Type: Evaluation B (Post-1980)) was “no conclusion” and the mutagenic call [8] was “no conclusion”. For the same compound, the mutagenic call [9] was “no conclusion” and the mutagenic call (Species/Cell Type: Salmonella typhimurium, Assay Type: Forward and reverse gene mutation, body fluid assay, Assay Code: BFU+, Evaluation Type: Evaluation A (Pre-1980)) was “active; positive”.

For `Nc1nc(-c2csc(N)n2)cs1`, the mutagenic call [9] was “no conclusion”.

In the case of `COCCOC(C)=O`, the mutagenic call (Species/Cell Type: Mammalian polychromatic erythrocytes, Assay Type: Micronucleus test, chromosome aberrations, Assay Code: MNT-, Evaluation Type: Evaluation B (Post-1980)) is reported as “inactive; negative”.

With `COC(=O)Cc1ccc(OC)c(CSC(=N)N)c1` the mutagenic call (Species/Cell Type: Saccharomyces cerevisiae, Assay Type: Reverse gene mutation, Assay Code: YERT, Evaluation Type: Evaluation A (Pre-1980)) was “no conclusion”.

`COc1c2occc2cc2ccc(=O)oc12` was tested, and the mutagenic call (Species/Cell Type: Aspergillus nidulans, Assay Type: Aneuploidy, chromosome aberrations, Assay Code: ASN-, Evaluation Type: Evaluation A (Pre-1980)) was “inactive; negative”, the mutagenic call (Species/Cell Type: Aspergillus nidulans, Assay Type: Forward gene mutation, Assay Code: ASFT, Evaluation Type: Evaluation A (Pre-1980)) was “no conclusion” and the mutagenic call (Species/Cell Type: Human lymphocytes, Assay Type: Sister-chromatid exchange (SCE) in vitro, Assay Code: SCL+, Evaluation Type: Evaluation B (Post-1980)) was “active; positive”. The mutagenic call (Species/Cell Type: Human lymphocytes, Assay Type: Sister-chromatid exchange (SCE) in vitro, Assay Code: SCLT, Evaluation Type: Evaluation A (Pre-1980)) was “no conclusion”, the mutagenic call (Species/Cell Type: Human, Assay Type: Sister-chromatid exchange (SCE) in vitro, Assay Code: SC1+, Evaluation Type: Evaluation B (Post-1980)) was “active; positive” and the mutagenic call (Species/Cell Type: Human, Assay Type: Sister-chromatid exchange (SCE) in vitro, Assay Code: SC1T, Evaluation Type: Evaluation A (Pre-1980)) was “no conclusion”. The call (Species/Cell Type: Nonhuman, Assay Code: CCGT, Evaluation Type: Evaluation A (Pre-1980)) was “no conclusion”, the mutagenic call (Species/Cell Type: Nonhuman, Assay Type: Sister-chromatid exchange (SCE) in vitro, Assay Code: SC2T, Evaluation Type: Evaluation A (Pre-1980)) was “no conclusion” and the mutagenic call (Species/Cell Type: Nonhuman, Assay Type: Sister-chromatid exchange (SCE) in vivo, Assay Code: SC3T, Evaluation Type: Evaluation B (Post-1980)) was “no conclusion”. The mutagenic call (Species/Cell Type: Saccharomyces cerevisiae, Assay Type: Mitotic recombination or gene conversion, Assay Code: YEH+, Evaluation Type: Evaluation A (Pre-1980)) was “active; positive”, the mutagenic call (Species/Cell Type: Saccharomyces cerevisiae, Assay Type: Reverse gene mutation, Assay Code: YER+, Evaluation Type: Evaluation A (Pre-1980)) was “active; positive” and the mutagenic call [9] was “no conclusion”.

With `O=Cc1ccccc1[N+](=O)[O-]` the mutagenic call [4] was “active; positive”.
